Measurements as given in PubChem BioAssay (NCI).
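Values below derive from 48-hour exposures of cells grown in 96-well plates, with endpoints linearly interpolated between the two concentrations bracketing the appropriate inhibition level. At the GI50, growth is halved. TGI marks complete inhibition of growth.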

Experiments:
Assay in all cases: NCI-60 cell line screen, 48 h
[1] = tested on: COLO 205 colon
[2] = tested on: HCC-2998 colon
[3] = tested on: DU-145 prostate
[4] = tested on: HCT-15 colon
[5] = tested on: TK-10 renal
[6] = tested on: CAKI-1 renal
[7] = tested on: OVCAR-3 ovarian
[8] = tested on: U251 CNS
[9] = tested on: IGROV1 ovarian
[10] = tested on: KM12 colon
[11] = tested on: SK-OV-3 ovarian
[12] = tested on: NCI-H460 lung
[13] = tested on: HOP-92 NSCLC
[14] = tested on: MDA-MB-231 breast
[15] = tested on: OVCAR-8 ovarian
[16] = tested on: CCRF-CEM leukemia
[17] = tested on: NCI-H522 lung
[18] = tested on: SNB-19 CNS
[19] = tested on: SF-295 CNS
[20] = tested on: MOLT-4 leukemia
[21] = tested on: A498 renal
[22] = tested on: BT-549 breast
[23] = tested on: PC-3 prostate
[24] = tested on: M14 melanoma
[25] = tested on: HL-60(TB) leukemia
[26] = tested on: SK-MEL-28 melanoma
[27] = tested on: SK-MEL-5 melanoma
[28] = tested on: T-47D breast
[29] = tested on: HS 578T breast
[30] = tested on: LOX IMVI melanoma
[31] = tested on: OVCAR-5 ovarian
[32] = tested on: MCF7 breast
[33] = tested on: NCI-H23 lung
[34] = tested on: MALME-3M melanoma
[35] = tested on: A549 NSCLC
[36] = tested on: 786-0 renal
[37] = tested on: HT29 colon
[38] = tested on: MDA-MB-435
[39] = tested on: SF-539 CNS
[40] = tested on: SF-268 CNS
[41] = tested on: ACHN renal
[42] = tested on: HCT-116 colon
[43] = tested on: NCI-H226 lung
[44] = tested on: SK-MEL-2 melanoma
[45] = tested on: UO-31 renal
[46] = tested on: SNB-75 CNS
[47] = tested on: RPMI-8226 leukemia
[48] = tested on: EKVX NSCLC
[49] = tested on: SN12C renal
[50] = tested on: UACC-62 melanoma
[51] = tested on: UACC-257 melanoma
[52] = tested on: K-562 leukemia
[53] = tested on: NCI/ADR-RES ovarian
[54] = tested on: SW-620 colon
[55] = tested on: OVCAR-4 ovarian
[56] = tested on: HOP-62 NSCLC
[57] = tested on: SR leukemia

## O=C1C[C@@H](c2ccc(O)cc2)[C@@]2(O1)C(=O)O[C@H]([C@@H](O)CO)[C@@H]2O
[1]
  TGI: > 100 µM
[2]
  TGI: > 100 µM
[3]
  TGI: > 100 µM
[4]
  TGI: > 100 µM
[5]
  TGI: > 100 µM
[6]
  TGI: > 100 µM
[7]
  TGI: > 100 µM
[8]
  TGI: > 100 µM
[9]
  TGI: > 100 µM
[10]
  TGI: > 100 µM
[11]
  TGI: > 100 µM
[12]
  TGI: > 100 µM
[13]
  TGI: > 100 µM
[14]
  TGI: > 100 µM
[15]
  TGI: > 100 µM
[16]
  TGI: > 100 µM
[17]
  TGI: > 100 µM
[18]
  TGI: > 100 µM
[19]
  TGI: > 100 µM
[20]
  TGI: > 100 µM
[21]
  TGI: > 100 µM
[22]
  TGI: > 100 µM
[23]
  TGI: > 100 µM
[24]
  TGI: > 100 µM
[25]
  TGI: > 100 µM
[26]
  TGI: > 100 µM
[27]
  TGI: > 100 µM
[28]
  TGI: > 100 µM
[29]
  TGI: > 100 µM
[30]
  TGI: > 100 µM
[31]
  TGI: > 100 µM
[32]
  TGI: > 100 µM
[33]
  TGI: > 100 µM
[34]
  TGI: > 100 µM
[35]
  TGI: > 100 µM
[36]
  TGI: > 100 µM
[37]
  TGI: > 100 µM
[38]
  TGI: > 100 µM
[39]
  TGI: > 100 µM
[40]
  TGI: > 100 µM
[41]
  TGI: > 100 µM
[42]
  TGI: > 100 µM
[43]
  TGI: > 100 µM
[44]
  TGI: > 100 µM
[45]
  TGI: > 100 µM
[46]
  TGI: > 100 µM
[47]
  TGI: > 100 µM
[48]
  TGI: > 100 µM
[49]
  TGI: > 100 µM
[50]
  TGI: > 100 µM
[51]
  TGI: > 100 µM
[52]
  TGI: > 100 µM
[53]
  TGI: > 100 µM
[54]
  TGI: > 100 µM
[55]
  TGI: > 100 µM

## O=C(/C=C/c1cccc(O)c1)c1cccc(-n2cc(-c3ccc(Cl)cc3)[nH]c2=O)c1
[1]
  GI50: 2.29 µM
  TGI: 4.95 µM
[56]
  GI50: 2.36 µM
  TGI: 4.88 µM
[2]
  GI50: 13.7 µM
  TGI: 27.6 µM
[57]
  GI50: 0.217 µM
  TGI: 1.07 µM
[3]
  GI50: 1.68 µM
  TGI: 4.18 µM
[4]
  GI50: 2.34 µM
  TGI: 10.5 µM
[5]
  GI50: 2.83 µM
  TGI: 9.13 µM
[6]
  GI50: 1.72 µM
  TGI: 4.07 µM
[7]
  GI50: 1.56 µM
  TGI: 3.44 µM
[8]
  GI50: 0.588 µM
  TGI: 2.15 µM
[9]
  GI50: 1.92 µM
  TGI: 6.38 µM
[10]
  GI50: 1.34 µM
  TGI: 3 µM
[11]
  GI50: 4.22 µM
  TGI: 17.2 µM
[12]
  GI50: 2.41 µM
  TGI: 5.99 µM
[13]
  GI50: 1.6 µM
  TGI: 5.41 µM
[14]
  GI50: 3.35 µM
  TGI: 17.3 µM
[15]
  GI50: 0.998 µM
  TGI: > 100 µM
[16]
  GI50: 1.76 µM
  TGI: 9.97 µM
[17]
  GI50: 1.65 µM
  TGI: 4.36 µM
[18]
  GI50: 1.92 µM
  TGI: 4.37 µM
[19]
  GI50: 1.79 µM
  TGI: 3.88 µM
[20]
  GI50: 0.535 µM
  TGI: 6.31 µM
[21]
  GI50: 3.71 µM
  TGI: 16.1 µM
[22]
  GI50: 1.45 µM
  TGI: 3.72 µM
[24]
  GI50: 2.01 µM
  TGI: 4.44 µM
[25]
  GI50: 1.09 µM
  TGI: 3.51 µM
[26]
  GI50: 3.64 µM
  TGI: 15.9 µM
[27]
  GI50: 1.53 µM
  TGI: 3.36 µM
[28]
  GI50: 1.92 µM
  TGI: 6.03 µM
[29]
  GI50: 4 µM
  TGI: 44 µM
[30]
  GI50: 1.57 µM
  TGI: 3.11 µM
[32]
  GI50: 1.29 µM
  TGI: 3.76 µM
[33]
  GI50: 2.78 µM
  TGI: 10.6 µM
[34]
  GI50: 1.83 µM
  TGI: 6.16 µM
[35]
  GI50: 3.55 µM
  TGI: > 100 µM
[36]
  GI50: 1.57 µM
  TGI: 2.99 µM
[37]
  GI50: 1.9 µM
  TGI: 3.99 µM
[38]
  GI50: 2.06 µM
  TGI: 6.64 µM
[39]
  GI50: 1.68 µM
  TGI: 3.22 µM
[40]
  GI50: 1.78 µM
  TGI: 3.94 µM
[41]
  GI50: 1.84 µM
  TGI: 4.13 µM
[42]
  GI50: 1.23 µM
  TGI: 2.52 µM
[43]
  GI50: 2.31 µM
  TGI: 5.5 µM
[44]
  GI50: 2.07 µM
  TGI: 4.67 µM
[45]
  GI50: 0.558 µM
  TGI: 3.46 µM
[46]
  GI50: 1.46 µM
  TGI: 3.04 µM
[47]
  GI50: 1.55 µM
  TGI: 4.64 µM
[48]
  GI50: 2.4 µM
  TGI: 9.62 µM
[49]
  GI50: 1.95 µM
  TGI: 5.93 µM
[50]
  GI50: 1.85 µM
  TGI: 4.27 µM
[51]
  GI50: 4.07 µM
  TGI: 26.3 µM
[52]
  GI50: 0.405 µM
  TGI: 3.63 µM
[53]
  GI50: 2.2 µM
  TGI: 5.96 µM
[54]
  GI50: 1.62 µM
  TGI: 4.74 µM
[55]
  GI50: 2.21 µM
  TGI: 8.96 µM
